From PMC9736157 (Molecules, 2022)
Like-named read-outs stand apart in the source and are kept apart here.

Tests used:
B-RAF (V600E) = biological target: T1, B-RAF (V600E) (Homo sapiens, UniProt P15056, V600E); assay: BRAF^V600E inhibition assay (B-RAF (V600E) Kinase Assay Kit, Kinase-Glo MAX); type: biochemical; conditions: isolated BRAF^V600E, ATP 10 μM, 30 °C, 45 min; three experiments in duplicate; read-out: BRAF (V600E) Kinase Activity IC50 (nM ± SEM)
T1 construct: purchased BPS Bioscience
Protocol: In a 96-well plate, the different inhibitor solutions in DMSO were mixed with Buffer, ATP (10 μM) and Raf substrate. […] After a 15 min delay to equilibrate plate temperature, 50 μL of Kinase-Glo Max was added in each well, and the luminescence was measured according to supplier’s instruction. The results, reported as IC50 ± S.E.M., were calculated with GrapPad Prism 7 and derive from three different experiments run in duplicate.

[1] = Stability in RPMI cell medium; type: in vitro ADME; conditions: RPMI cell culture medium with 10% FBS, RPMI with 10% FBS, 37 °C
Protocol: (§1) Stability of compounds was determined in RPMI medium and in human serum. DMSO stock solutions of compounds (10 mM) was added to RPMI (Sigma–Aldrich, Darmstadt, Germany) competed with 10% fetal bovine serum (FBS) plus 2 mM glutamine, penicillin (100 IU/mL), and streptomycin (100 μγ/mL; Sigma–Aldrich, Darmstadt, Germany) or to human serum (sterile-filtered from human male AB plasma, Sigma–Aldrich, Darmstadt, Germany), to obtain the 100 μM final concentration with 1% of DMSO. The resulting solutions were incubated at 37 °C for 48 h. At appropriate time intervals (0, 1, 5, 24 and 48 h), 300 µL of the reaction mixture was withdrawn and added to 300 µL of acetonitrile 0.1% TFA. The samples were vortexed, sonicated for 3 min and then centrifuged for 5 min at 2500× g. The clear supernatant was filtered through a PTFE 0.45 μm filter (VWR) and analyzed by RP-HPLC. Each experiment was independently repeated at least three times, and results are expressed as a percentage of unmodified compound over time. The half-life was determined by fitting the data with a one phase exponential decay equation (Graph Pad, Prism software vr. 5, GraphPad Software Inc., San Diego, CA, USA). […]
(§2) The column effluent was monitored at 226 and 300 nm, referenced against a 800 nm wavelength. […] Quantitation of compounds was obtained by calibration curves (linearity determined in a concentration range of 1–100 µM, r^2 > 0.99).

Stability in human serum = type: in vitro ADME; conditions: male, 37 °C
Protocol: as §1, §2

A375 melanoma cell line = assay: Antiproliferative activity, CellTiter-Glo, A375; type: cell-based; conditions: Homo sapiens, A-375, A375, 72 h
Protocol: Based on the previous preliminary tests, we sought to investigate the ability of synthesized compounds 5–15 and reference 1 in inhibiting the proliferation of BRAF^V600E mutant cancer cells. A first screening was conducted in A375 melanoma cell lines (Table 1, Figure S2). Encorafenib was employed for comparison.
(§3) The ability of compounds 5, 10, 11, 15–selected based on their chemical diversity–to inhibit cell proliferation was then tested both in A375 and in Colo205 cancer cell lines. […] P5B was obtained by joining the BRAF inhibitor BI 882370 to pomalidomide through a five PEG unit spacer (Figure S3). In compound P5B, the linker length was of 17 atoms, the same length of the spacer used to generate our compound 10. A375 and Colo205 cells were treated for 72 h with compounds 5, 10, 11, 15, and P5B, and the antiproliferative activity was measured by a luminescent ATP-based assay, which determines the number of viable cells based on their metabolic activity. […] However, P5B was more efficient in inhibiting tumor cell viability in comparison with the other selected compounds.
(§4) Cell viability was evaluated by means of CellTiter-Glo Luminescent Assay (Promega), which allows users to measure the ATP in the cell supernatant. The assay was performed according to manufacturer’s instructions. In brief, 4.10^3 A375 or Colo205 were seeded into 96-well plates and allowed to adhere at the wall overnight. Cells were treated for 72 h with BRAF inhibitor compounds. Then, 90 µL of the cell culture medium was transferred in a white 96-well plate, to which 10 µL of CellTiter-Glo was added before measurement of luminescence. Luminescence was measured by the SPARK M10 (Tecan, Männedorf, Switzerland) plate reader.

Colo205 cells = assay: Cell permeability in Colo205 cells; type: in vitro ADME; conditions: Colo205 cells (Table S1)
Colo205 cell line = assay: Antiproliferative activity, CellTiter-Glo, Colo205; type: cell-based; conditions: Homo sapiens, COLO 205; Colo205, 72 h (Figure 6b); read-out: Antiproliferative activity IC50 (nM ± SEM)
Protocol: as §3, §4

BRAF^V600E [2] = test system: T2, BRAF^V600E; assay: Western blot, BRAF^V600E degradation in A375; type: cell-based
T2 construct: endogenous in cells; host or cells: A375 and Colo205 cell lines
Protocol: (§5) Finally, we investigated the capability of the most antiproliferative compounds in interfering with BRAF pathway, favoring target degradation. To this end, Western blot analysis was conducted 24 h after incubation with 10 and 11 in both A375 and Colo205 cell lines. […] This observation was consistent with their ability to inhibit BRAF^V600E.
(§6) To measure the capability of our compounds to interfere with BRAF pathway, pre-treated A375 and Colo205 cells were lysed. We then performed protein analysis through Western blot by using the following primary antibodies: anti-phospho ERK 1/2 (clone E10; dilution 1:1000; Cell Signaling Technology, Danvers, MA, USA) and anti-ERK (clone 137F5; dilution 1:1000; Cell Signaling Technology); anti-phospho MEK (clone S217/221; dilution 1:1000; Cell Signaling Technology); anti-MEK1,2 (clone 9122; dilution 1:1000; Cell Signaling Technology); anti-BRAF v600e (dilution 1:1000; Abcam, Cambridge, UK); and anti-total BRAF (dilution 1:1000; ThermoFisher, Waltham, MA, USA). Vinculin (clone E1E9B; dilution 1:1000; Cell Signaling Technology) was used as a loading control. The total protein amount was determined using the bicinchoninic acid (BCA) protein assay reagent (Thermo Scientific, Waltham, MA, USA). Equivalent amounts of protein were separated by SDS–PAGE on precast Bolt 4–12% Bis-Tris gel (Invitrogen, Carlsbad, CA, USA). Proteins were then transferred from gel to nitrocellulose with a Trans-Blot Turbo transfer system (Biorad, Hercules, CA, USA), probed with goat anti-rabbit IgG (H+L) secondary antibody, HRP conjugate (Invitrogen) or goat anti-mouse IgG (H+L) secondary antibody, HRP conjugate (Jackson ImmunoResearch Inc., Langcaster, PA, USA), and detected using enhanced chemiluminescence technique (Western Lightning Plus-ECL, Enhanced Chemiluminescence Substrate; Perkin Elmer, catalog # NEL105001EA, Waltham, MA, USA).

BRAF^V600E [3] = test system: T2, BRAF^V600E; assay: Western blot, BRAF^V600E degradation in Colo205; type: cell-based
Protocol: as §5, §6

[4] = test system: phosphorylation of MEK and ERK; assay: Western blot, BRAF signaling in A375; type: cell-based; conditions: A375, 24 h incubation
Protocol: as §5
(§7) To measure the capability of our compounds to interfere with BRAF pathway, pre-treated A375 and Colo205 cells were lysed. […] The total protein amount was determined using the bicinchoninic acid (BCA) protein assay reagent (Thermo Scientific, Waltham, MA, USA). […] Proteins were then transferred from gel to nitrocellulose with a Trans-Blot Turbo transfer system (Biorad, Hercules, CA, USA), probed with goat anti-rabbit IgG (H+L) secondary antibody, HRP conjugate (Invitrogen) or goat anti-mouse IgG (H+L) secondary antibody, HRP conjugate (Jackson ImmunoResearch Inc., Langcaster, PA, USA), and detected using enhanced chemiluminescence technique (Western Lightning Plus-ECL, Enhanced Chemiluminescence Substrate; Perkin Elmer, catalog # NEL105001EA, Waltham, MA, USA).

[5] = test system: phosphorylation of MEK and ERK; assay: Western blot, BRAF signaling in Colo205; type: cell-based; conditions: Colo205, 24 h incubation
Protocol: as §5, §7

[6] = first screening (Table 1), read-out: Antiproliferative Activity IC50 ± SEM

T1 sequence (P15056 whole entry V600E): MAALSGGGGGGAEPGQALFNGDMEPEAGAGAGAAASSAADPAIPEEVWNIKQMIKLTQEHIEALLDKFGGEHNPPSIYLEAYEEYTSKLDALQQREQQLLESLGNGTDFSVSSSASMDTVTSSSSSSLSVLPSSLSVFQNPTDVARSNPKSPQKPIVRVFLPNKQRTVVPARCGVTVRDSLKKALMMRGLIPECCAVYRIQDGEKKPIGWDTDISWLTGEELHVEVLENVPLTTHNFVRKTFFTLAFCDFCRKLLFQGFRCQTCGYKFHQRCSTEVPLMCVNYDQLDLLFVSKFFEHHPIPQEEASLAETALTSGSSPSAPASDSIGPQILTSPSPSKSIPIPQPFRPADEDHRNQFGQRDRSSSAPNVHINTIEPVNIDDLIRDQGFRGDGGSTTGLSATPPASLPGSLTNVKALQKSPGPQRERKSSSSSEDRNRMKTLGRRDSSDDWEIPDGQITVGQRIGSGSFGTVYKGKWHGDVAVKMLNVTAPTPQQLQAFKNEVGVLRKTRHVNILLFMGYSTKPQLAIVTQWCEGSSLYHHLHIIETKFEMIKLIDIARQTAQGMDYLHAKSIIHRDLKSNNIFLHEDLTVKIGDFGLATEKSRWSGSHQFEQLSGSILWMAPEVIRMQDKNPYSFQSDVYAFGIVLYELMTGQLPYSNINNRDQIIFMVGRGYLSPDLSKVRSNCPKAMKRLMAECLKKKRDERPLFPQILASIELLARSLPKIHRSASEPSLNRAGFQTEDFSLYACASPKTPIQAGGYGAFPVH

Compound	IC50 (B-RAF (V600E))	half-life at 100 μM [1]	half-life at 100 μM (Stability in human serum)	IC50 (A375 melanoma cell line; [6])	cell permeability (Colo205 cells)	IC50 (A375 melanoma cell line; second set of experiments (Figure 6a), read-out: Antiproliferative activity IC50 (nM ± SEM))	IC50 (Colo205 cell line)	BRAF^V600E degradation (BRAF^V600E [2]; A375, 24 h, 100–500 nM)	BRAF^V600E degradation at higher concentration (BRAF^V600E [2]; A375, up to 10 µM (Figure S4))	BRAF^V600E degradation (BRAF^V600E [3]; Colo205, 24 h, 100–500 nM)	BRAF^V600E degradation at higher concentration (BRAF^V600E [3]; Colo205, up to 10 µM (Figure S4))	phosphorylation of MEK and ERK [4]	phosphorylation of MEK and ERK [5]
CC(C)n1cc(-c2ccnc(NC[C@H](C)NC(=O)CCOCCOCCOCCNc3cccc4c3C(=O)N(C3CCC(=O)NC3=O)C4=O)n2)c(-c2cc(Cl)cc(NS(C)(=O)=O)c2F)n1 (stereo partly drawn) [Compound 8, N-((S)-1-((4-(3-(5-chloro-2-fluoro-3-(methylsulfonamido)phenyl)-1-isopropyl-1H-pyrazol-4-yl)pyrimidin-2-yl)amino)propan-2-yl)-3-(2-(2-(2-((2-(2,6-dioxopiperidin-3-yl)-1,3-dioxoisoindolin-4-yl)amino)ethoxy)ethoxy)ethoxy)propanamide]	57 ± 7 nM	21 h	24 h	1760 ± 287 nM	ability to reach the cytosolic compartment	–	–	–	–	–	–	–	–
CC(C)n1cc(-c2ccnc(NC[C@H](C)NC(=O)CCOCCOCCOCCOCCOCCNc3cccc4c3C(=O)N(C3CCC(=O)NC3=O)C4=O)n2)c(-c2cc(Cl)cc(NS(C)(=O)=O)c2F)n1 (stereo partly drawn) [Compound 10, N-((S)-1-((4-(3-(5-chloro-2-fluoro-3-(methylsulfonamido)phenyl)-1-isopropyl-1H-pyrazol-4-yl)pyrimidin-2-yl)amino)propan-2-yl)-1-((2-(2,6-dioxopiperidin-3-yl)-1,3-dioxoisoindolin-4-yl)amino)-3,6,9,12,15-pentaoxaoctadecan-18-amide]	75 ± 17 nM	19 h	23 h	132 ± 1.95 nM	–	194 ± 36 nM	31 ± 10 nM	not able to induce BRAF^V600E degradation	no degradation of the target protein	not able to induce BRAF^V600E degradation	no degradation of the target protein	able to decrease phosphorylation of MEK and ERK	able to decrease phosphorylation of MEK and ERK
